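48-hour exposure; five concentrations; linearly interpolated endpoints. GI50: concentration for 50% inhibition of growth. TGI: total growth inhibition.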
Columns and labels:
Assay in all cases: growth of human tumour cells (NCI), 48 h
IGROV1 ovarian = test system: IGROV1 ovarian
A498 renal = test system: A498 renal
SNB-75 CNS = test system: SNB-75 CNS
ACHN renal = test system: ACHN renal
SK-OV-3 ovarian = test system: SK-OV-3 ovarian
PC-3 prostate = test system: PC-3 prostate
SW-620 colon = test system: SW-620 colon
DU-145 prostate = test system: DU-145 prostate
CAKI-1 renal = test system: CAKI-1 renal
MOLT-4 leukemia = test system: MOLT-4 leukemia
SF-268 CNS = test system: SF-268 CNS
HOP-62 NSCLC = test system: HOP-62 NSCLC
NCI-H23 lung = test system: NCI-H23 lung
RPMI-8226 leukemia = test system: RPMI-8226 leukemia
M14 melanoma = test system: M14 melanoma
BT-549 breast = test system: BT-549 breast
SNB-19 CNS = test system: SNB-19 CNS
NCI/ADR-RES ovarian = test system: NCI/ADR-RES ovarian
RXF 393 renal = test system: RXF 393 renal
786-0 renal = test system: 786-0 renal
SR leukemia = test system: SR leukemia
UACC-257 melanoma = test system: UACC-257 melanoma
HL-60(TB) leukemia = test system: HL-60(TB) leukemia
LOX IMVI melanoma = test system: LOX IMVI melanoma
SK-MEL-5 melanoma = test system: SK-MEL-5 melanoma
SK-MEL-2 melanoma = test system: SK-MEL-2 melanoma
SF-295 CNS = test system: SF-295 CNS
KM12 colon = test system: KM12 colon
CCRF-CEM leukemia = test system: CCRF-CEM leukemia
K-562 leukemia = test system: K-562 leukemia
HCT-116 colon = test system: HCT-116 colon
OVCAR-8 ovarian = test system: OVCAR-8 ovarian
OVCAR-5 ovarian = test system: OVCAR-5 ovarian
MDA-MB-231 breast = test system: MDA-MB-231 breast
MDA-MB-435 = test system: MDA-MB-435
MCF7 breast = test system: MCF7 breast
NCI-H460 lung = test system: NCI-H460 lung
HCT-15 colon = test system: HCT-15 colon
HCC-2998 colon = test system: HCC-2998 colon
HOP-92 NSCLC = test system: HOP-92 NSCLC
HT29 colon = test system: HT29 colon
UO-31 renal = test system: UO-31 renal
U251 CNS = test system: U251 CNS
UACC-62 melanoma = test system: UACC-62 melanoma
SF-539 CNS = test system: SF-539 CNS
SN12C renal = test system: SN12C renal
T-47D breast = test system: T-47D breast
OVCAR-4 ovarian = test system: OVCAR-4 ovarian
MALME-3M melanoma = test system: MALME-3M melanoma
NCI-H226 lung = test system: NCI-H226 lung
OVCAR-3 ovarian = test system: OVCAR-3 ovarian
COLO 205 colon = test system: COLO 205 colon
SK-MEL-28 melanoma = test system: SK-MEL-28 melanoma
NCI-H522 lung = test system: NCI-H522 lung
A549 NSCLC = test system: A549 NSCLC
HS 578T breast = test system: HS 578T breast

## O=C1Nc2ccccc2/C1=C/C(=N/c1nnc(-c2ccccc2)s1)c1ccccc1
IGROV1 ovarian
  GI50: 2130 nM
  TGI: 5.94 µM
A498 renal
  GI50: 6.78 µM
  TGI: 21 µM
SNB-75 CNS
  GI50: 3.7 µM
  TGI: 16.9 µM
ACHN renal
  GI50: 1560 nM
  TGI: 3 µM
SK-OV-3 ovarian
  GI50: 6.62 µM
  TGI: 19.1 µM
PC-3 prostate
  GI50: 2000 nM
  TGI: 5.52 µM
SW-620 colon
  GI50: 1200 nM
  TGI: 2740 nM
DU-145 prostate
  GI50: 2700 nM
  TGI: 7.77 µM
CAKI-1 renal
  GI50: 2580 nM
  TGI: 10.3 µM
MOLT-4 leukemia
  GI50: 2230 nM
  TGI: 6.54 µM
SF-268 CNS
  GI50: 4.3 µM
  TGI: 16.1 µM
HOP-62 NSCLC
  GI50: 6.05 µM
  TGI: 18 µM
NCI-H23 lung
  GI50: 2880 nM
  TGI: 11 µM
RPMI-8226 leukemia
  GI50: 2140 nM
  TGI: 5.21 µM
M14 melanoma
  GI50: 3.87 µM
  TGI: 14.3 µM
BT-549 breast
  GI50: 1910 nM
  TGI: 3.96 µM
SNB-19 CNS
  GI50: 12.3 µM
  TGI: 25 µM
NCI/ADR-RES ovarian
  GI50: 3.1 µM
  TGI: 10.3 µM
RXF 393 renal
  GI50: 1510 nM
  TGI: 3.1 µM
786-0 renal
  GI50: 1790 nM
  TGI: 3.55 µM
SR leukemia
  GI50: 957 nM
  TGI: 6.76 µM
UACC-257 melanoma
  GI50: 3.81 µM
  TGI: 10.6 µM
HL-60(TB) leukemia
  GI50: 1820 nM
  TGI: 5.33 µM
LOX IMVI melanoma
  GI50: 1610 nM
  TGI: 3.21 µM
SK-MEL-5 melanoma
  GI50: 6.57 µM
  TGI: 17.9 µM
SK-MEL-2 melanoma
  GI50: 2550 nM
  TGI: 7.07 µM
SF-295 CNS
  GI50: 17.1 µM
  TGI: 32.7 µM
KM12 colon
  GI50: 5.5 µM
  TGI: 17.9 µM
CCRF-CEM leukemia
  GI50: 1470 nM
  TGI: 4.72 µM
K-562 leukemia
  GI50: 1690 nM
  TGI: 11 µM
HCT-116 colon
  GI50: 1340 nM
  TGI: 2920 nM
OVCAR-8 ovarian
  GI50: 2770 nM
  TGI: 9.35 µM
OVCAR-5 ovarian
  GI50: 2090 nM
  TGI: 6.63 µM
MDA-MB-231 breast
  GI50: 1920 nM
  TGI: 4.95 µM
MDA-MB-435
  GI50: 2960 nM
  TGI: 9.32 µM
MCF7 breast
  GI50: 2280 nM
  TGI: 11.3 µM
NCI-H460 lung
  GI50: 7.04 µM
  TGI: 21.9 µM
HCT-15 colon
  GI50: 1630 nM
  TGI: 4.01 µM
HCC-2998 colon
  GI50: 8.58 µM
  TGI: 21.5 µM
HOP-92 NSCLC
  GI50: 987 nM
  TGI: 2930 nM
HT29 colon
  GI50: 2100 nM
  TGI: 5.37 µM
UO-31 renal
  GI50: 1450 nM
  TGI: 3.31 µM
U251 CNS
  GI50: 4.91 µM
  TGI: 17.7 µM
UACC-62 melanoma
  GI50: 1720 nM
  TGI: 3.74 µM
SF-539 CNS
  GI50: 1990 nM
  TGI: 4.64 µM
SN12C renal
  GI50: 2070 nM
  TGI: 5.69 µM
T-47D breast
  GI50: 2450 nM
  TGI: 10.1 µM
OVCAR-4 ovarian
  GI50: 2630 nM
  TGI: 12.2 µM
MALME-3M melanoma
  GI50: 2170 nM
  TGI: 6.67 µM
NCI-H226 lung
  GI50: 2500 nM
  TGI: 8.28 µM
OVCAR-3 ovarian
  GI50: 1380 nM
  TGI: 2800 nM
COLO 205 colon
  GI50: 1680 nM
  TGI: 3.22 µM
SK-MEL-28 melanoma
  GI50: 2680 nM
  TGI: 6.93 µM
NCI-H522 lung
  GI50: 449 nM
  TGI: 1060 nM
A549 NSCLC
  GI50: 8.62 µM
  TGI: 23.6 µM
HS 578T breast
  GI50: 2710 nM
  TGI: 11.8 µM
